From ChEMBL document CHEMBL3632622, “Synthesis and biological evaluation of novel N-phenyl ureidobenzenesulfonate derivatives as potential anticancer agents. Part 2. Modulation of the ring B” (Eur J Med Chem, 2015)
Blank lines part the entries; values can stand above or below the compound they belong to. Activity calls are given as the source filed them. The rule behind the calls is not given here.

Legend:
[1] = Antiproliferative activity against human HT1080 cells assessed as growth inhibition incubated for 48 hrs by sulforhodamine B assay; assay type: functional, cell-based, HT-1080; conditions: Homo sapiens, HT-1080, 48 h; read-out: IC50
M21 [2] = assay: Antiproliferative activity against human M21 cells assessed as growth inhibition incubated for 48 hrs by sulforhodamine B assay; assay type: functional, cell-based; conditions: M21, 48 h
HT-29 = assay: Antiproliferative activity against human HT-29 cells assessed as growth inhibition incubated for 48 hrs by sulforhodamine B assay; assay type: functional, cell-based; conditions: HT-29, 48 h
MCF7 = assay: Antiproliferative activity against human MCF7 cells assessed as growth inhibition incubated for 48 hrs by sulforhodamine B assay; assay type: functional, cell-based; conditions: MCF7, 48 h
M21 [3] = assay: Cell cycle arrest in human M21 cells assessed as accumulation at subG1 phase at 2.2 uM after 24 hrs by DAPI staining-based flow cytometry (reference value: 1.5%); assay type: functional
M21 [4] = assay: Cell cycle arrest in human M21 cells assessed as accumulation at G0/G1 phase at 2.2 uM after 24 hrs by DAPI staining-based flow cytometry (reference value: 65.1%); assay type: functional
M21 [5] = assay: Cell cycle arrest in human M21 cells assessed as accumulation at S phase at 2.2 uM after 24 hrs by DAPI staining-based flow cytometry (reference value: 17.4%); assay type: functional
M21 [6] = assay: Cell cycle arrest in human M21 cells assessed as accumulation at G2/M phase at 2.2 uM after 24 hrs by DAPI staining-based flow cytometry (reference value: 16%); assay type: functional
M21 [7] = assay: Cell cycle arrest in human M21 cells assessed as accumulation at subG1 phase at 16 uM after 24 hrs by DAPI staining-based flow cytometry (reference value: 1.5%); assay type: functional
M21 [8] = assay: Cell cycle arrest in human M21 cells assessed as accumulation at G0/G1 phase at 16 uM after 24 hrs by DAPI staining-based flow cytometry (reference value: 65.1%); assay type: functional
M21 [9] = assay: Cell cycle arrest in human M21 cells assessed as accumulation at S phase at 16 uM after 24 hrs by DAPI staining-based flow cytometry (reference value: 17.4%); assay type: functional
M21 [10] = assay: Cell cycle arrest in human M21 cells assessed as accumulation at G2/M phase at 16 uM after 24 hrs by DAPI staining-based flow cytometry (reference value: 16%); assay type: functional
M21 [11] = assay: Cell cycle arrest in human M21 cells assessed as accumulation at G0/G1 phase at 10 uM after 24 hrs by DAPI staining-based flow cytometry (reference value: 65.1%); assay type: functional
M21 [12] = assay: Cell cycle arrest in human M21 cells assessed as accumulation at S phase at 10 uM after 24 hrs by DAPI staining-based flow cytometry (reference value: 17.4%); assay type: functional
M21 [13] = assay: Cell cycle arrest in human M21 cells assessed as accumulation at G2/M phase at 10 uM after 24 hrs by DAPI staining-based flow cytometry (reference value: 16%); assay type: functional
M21 [14] = assay: Cell cycle arrest in human M21 cells assessed as accumulation at subG1 phase at 10 uM after 24 hrs by DAPI staining-based flow cytometry (reference value: 1.5%); assay type: functional
M21 [15] = assay: Induction DNA DSBs in human M21 cells assessed as increase in gamma H2AX foci at 10 uM incubated for 24 hrs by DAPI staining based immunocytochemistry; assay type: cell-based
M21 [16] = assay: Cell cycle arrest in human M21 cells assessed as accumulation at G0/G1 phase at 2.6 uM after 24 hrs by DAPI staining-based flow cytometry (reference value: 65.1%); assay type: functional
M21 [17] = assay: Cell cycle arrest in human M21 cells assessed as accumulation at S phase at 2.6 uM after 24 hrs by DAPI staining-based flow cytometry (reference value: 17.4%); assay type: functional
M21 [18] = assay: Cell cycle arrest in human M21 cells assessed as accumulation at G2/M phase at 2.6 uM after 24 hrs by DAPI staining-based flow cytometry (reference value: 16%); assay type: functional
M21 [19] = assay: Cell cycle arrest in human M21 cells assessed as accumulation at subG1 phase at 2.6 uM after 24 hrs by DAPI staining-based flow cytometry (reference value: 1.5%); assay type: functional
M21 [20] = assay: Cell cycle arrest in human M21 cells assessed as accumulation at G0/G1 phase at 5.4 uM after 24 hrs by DAPI staining-based flow cytometry (reference value: 65.1%); assay type: functional
M21 [21] = assay: Cell cycle arrest in human M21 cells assessed as accumulation at S phase at 5.4 uM after 24 hrs by DAPI staining-based flow cytometry (reference value: 17.4%); assay type: functional
M21 [22] = assay: Cell cycle arrest in human M21 cells assessed as accumulation at G2/M phase at 5.4 uM after 24 hrs by DAPI staining-based flow cytometry (reference value: 16%); assay type: functional
M21 [23] = assay: Cell cycle arrest in human M21 cells assessed as accumulation at subG1 phase at 5.4 uM after 24 hrs by DAPI staining-based flow cytometry (reference value: 1.5%); assay type: functional
M21 [24] = assay: Induction DNA DSBs in human M21 cells assessed as increase in gamma H2AX foci at 5.4 uM incubated for 24 hrs by DAPI staining based immunocytochemistry; assay type: cell-based
M21 [25] = assay: Cell cycle arrest in human M21 cells assessed as accumulation at subG1 phase at 5.1 uM after 24 hrs by DAPI staining-based flow cytometry (reference value: 1.5%); assay type: functional
M21 [26] = assay: Cell cycle arrest in human M21 cells assessed as accumulation at G0/G1 phase at 5.1 uM after 24 hrs by DAPI staining-based flow cytometry (reference value: 65.1%); assay type: functional
M21 [27] = assay: Cell cycle arrest in human M21 cells assessed as accumulation at S phase at 5.1 uM after 24 hrs by DAPI staining-based flow cytometry (reference value: 17.4%); assay type: functional
M21 [28] = assay: Cell cycle arrest in human M21 cells assessed as accumulation at G2/M phase at 5.1 uM after 24 hrs by DAPI staining-based flow cytometry (reference value: 16%); assay type: functional

Structure (SMILES): O=C(NCCCl)Nc1ccc(S(=O)(=O)Oc2c(F)cccc2F)cc1
- IC50 [1]: 3.2 µM
- IC50 (M21 [2]): 3.2 µM
- IC50 (HT-29): 4.1 µM
- IC50 (MCF7): 4.8 µM
- Activity (M21 [7]): 8.7%
- Activity (M21 [8]): 29.4%
- Activity (M21 [9]): 15.1%
- Activity (M21 [10]): 46.8%

Structure (SMILES): O=C(NCCCl)Nc1ccc(S(=O)(=O)Oc2ccccc2Cl)cc1
- IC50 [1]: 1.1 µM
- IC50 (M21 [2]): 2.1 µM
- IC50 (HT-29): 3.5 µM
- IC50 (MCF7): 4.2 µM
- Activity (M21 [11]): 43.8%
- Activity (M21 [12]): 33.3%
- Activity (M21 [13]): 21%
- Activity (M21 [14]): 1.9%
- Activity (M21 [15]): Active

Structure (SMILES): Cc1ccccc1OS(=O)(=O)c1ccc(NC(=O)NCCCl)cc1
- IC50 [1]: 1.6 µM
- IC50 (M21 [2]): 4.5 µM
- IC50 (HT-29): 4.9 µM
- IC50 (MCF7): 6.1 µM
- Activity (M21 [20]): 39.2%
- Activity (M21 [21]): 39%
- Activity (M21 [22]): 19.5%
- Activity (M21 [23]): 2.3%
- Activity (M21 [24]): Active

Now those with a lower IC50 (HT-29), led by results:

- IC50 (HT-29): 1.4 µM
- IC50 (MCF7): 1.7 µM
Structure (SMILES): CCOc1ccccc1OS(=O)(=O)c1ccc(NC(=O)NCCCl)cc1
- IC50 [1]: 2.2 µM
- IC50 (M21 [2]): 1.1 µM
- Activity (M21 [3]): 6.7%
- Activity (M21 [4]): 28.8%
- Activity (M21 [5]): 11.8%
- Activity (M21 [6]): 52.7%

- IC50 (HT-29): 1.9 µM
- IC50 (MCF7): 2.1 µM
Structure (SMILES): CCCc1ccccc1OS(=O)(=O)c1ccc(NC(=O)NCCCl)cc1
- IC50 [1]: 1.9 µM
- IC50 (M21 [2]): 1.3 µM
- Activity (M21 [16]): 36%
- Activity (M21 [17]): 37%
- Activity (M21 [18]): 25.7%
- Activity (M21 [19]): 1.3%

- IC50 (HT-29): 1.2 µM
- IC50 (MCF7): 1.2 µM
Structure (SMILES): O=C(NCCCl)Nc1ccc(S(=O)(=O)Oc2cc(Cl)c(Cl)cc2Cl)cc1
- IC50 [1]: 1.4 µM
- IC50 (M21 [2]): 1 µM
- Activity (M21 [25]): 5.5%
- Activity (M21 [26]): 3.3%
- Activity (M21 [27]): 8.6%
- Activity (M21 [28]): 82.6%
